This is an account of results in ChEMBL document CHEMBL5523703, “Modulators for palmitoylation of proteins and small molecules” (Eur J Med Chem, 2024).

One test deals with CCF-STTG1. Put plainly: Antiproliferative activity against human CCF-STTG1 cells assessed as reduction in cell growth. It is filed as functional, cell-based.
Test [1] is described as follows: Binding affinity to SPT (unknown origin) assessed as inhibition constant. Set-up: species or system Homo sapiens.
For another test, the system named is Plasmodium falciparum. Description: […] activity against Plasmodium falciparum assessed as reduction in microbial growth. In kind it is functional.

One may read the IC50 as the concentration that inhibits the measured activity by half. The term Ki denotes a measure of affinity in units of concentration, obtained from inhibition or displacement. As for `C/C(=C\CC12OC(C)(C)C3CC(C=C4C(=O)c5c(O)cccc5OC431)C2=O)COC(=O)c1cccnc1` (stereo not drawn), the IC50 in the test with CCF-STTG1 came out at 2.29 µM. Besides, in test [1], the inhibition constant (Ki) is 1.7 µM.

In general, MIC refers to the smallest concentration in the dilution series that meets the test's criterion for growth inhibition. Turning to `CCCCCCCCCCCCOC(=O)[C@@H](N)CC(C)C`, the minimum inhibitory concentration (MIC) with Plasmodium falciparum was 0.78 mg/L.
